What all share (test): NCI anticancer screen, dose series, 48 h
Assay [1] relates to OVCAR-3 ovarian.
The test system of assay [2] is EKVX NSCLC.
In assay [3] the test system is A549 NSCLC.
Assay [4] relates to CAKI-1 renal.
Assay [5] relates to SF-295 CNS.
Assay [6] concerns ACHN renal.
The test system of assay [7] is NCI-H226 lung.
The subject of assay [8] is MDA-MB-435.
Assay [9] relates to MDA-N.
Assay [10] concerns HOP-92 NSCLC.

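In this assay, cells in 96-well plates receive the compound at five concentrations for 48 hours. Endpoints are linearly interpolated between the surrounding concentrations. The concentration for full growth arrest is given as TGI.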 *1 amine or outer side, *2 acyl side, *3 side chain or, on linkers, in order; H or OH if unused. Where a SMILES comes first, the peptide text is derived from it. Bridges are numbered along the chain shown (N, C = ends). [ ]: non-standard residue; d: D form. ξ: configuration not given here. X35 = CC[C@H](C)[C@@H](N[*:1])[C@@H](O)CC(=O)O[C@H](C(=O)[C@H](C)C(=O)[*:2])C(C)C; NMeY = CN[C@@H](Cc1ccc(O)cc1)C(=O)O; dNMeL = CN[C@H](CC(C)C)C(=O)O; ξΔPro = O=C(O)C1C=CCN1 Where only a bound is given, the exact number is not on record here.

For the compound `COc1cc2c(c(OC)c1)C(=O)O[C@H](C)CCCC/C=C/C2`, the TGI in assay [1] was 28 µM; in [2], 29.6 µM; in assay [3], over 100 µM; in assay [4] it was 26.4 µM; in assay [5], over 32.2 µM; in assay [6], over 30.6 µM. For the same compound, the TGI was over 95.8 µM in [7], 12.9 µM in assay [8], 26.4 µM in [9] and 25.7 µM in assay [10].
With `CCOC(=O)Cc1csc(N=Nc2c(O)[nH]c3ccccc23)n1`, the TGI in assay [1], in assay [2], in assay [3], in [4], in [5] and in [6] was over 100 µM throughout. Also, the TGI in assay [7], in [8], in [9] and in [10] was over 100 µM each time.
Take `CC(=Nc1cc(Cl)cc(Cl)c1)c1ccncc1`: the TGI in assay [1], in assay [2], in [3], in assay [4], in [5] and in assay [6] was over 100 µM each time. The TGI in assay [7], in assay [8], in [9] and in assay [10] was over 100 µM in each case.
In the case of `CC[C@H](C)[C@H]1NC(=O)[C@@H](NC(=O)[C@@H](CC(C)C)N(C)C(=O)C2C=CCN2)[C@@H](C)OC(=O)[C@H](Cc2ccc(OC)cc2)N(C)C(=O)[C@@H]2CCCN2C(=O)[C@H](CC(C)C)NC(=O)[C@@H](C)C(=O)[C@H](C(C)C)OC(=O)C[C@@H]1O` (stereo partly specified) (H-[ξΔPro][dNMeL]T[X35]LP[NMeY](Me); ester 3-C), the TGI in [2] was 0.168 µM; in [3], over 50 µM; in assay [4] it was 0.378 µM; in assay [5], 0.055 µM; in assay [6] it was 0.061 µM; in assay [7], under 0.005 µM. Moreover, the results for the TGI in assay [8], in assay [9] and in assay [10] were 0.0687 µM, 0.081 µM and 0.171 µM, respectively.
For `CC1CN=C(c2ccc(-c3nc(-c4ccc(C5=NCC(C)N5)cc4)nc(N(C)C)n3)cc2)N1` (stereo unspecified), the TGI amounted to 4.74 µM in assay [1]; 8.67 µM in [2]; 12.8 µM in [3]; 32 µM in assay [4]; 15.8 µM in assay [5]; 11.5 µM in assay [6]. For the same compound, the TGI in assay [7] stood at 5.35 µM; in assay [8], 3.09 µM; in assay [9] it was 4.03 µM; in assay [10], 11.3 µM.
On to `O=C1C(Cl)=C(c2ccc([N+](=O)[O-])cc2)C(=O)c2c(O)cccc21`, for which the TGI was 3.11 µM in assay [1]; 33.4 µM in [2]; 25 µM in [3]; 3.86 µM in [4]; 8.19 µM in assay [5]; 2.36 µM in assay [6]. The TGI in assay [7] is 5.74 µM; in [8], 4.8 µM; in assay [9], 6.53 µM; in assay [10] it was 3.15 µM.
For the compound `Cc1ccc(NC2=N/C(=C/c3ccco3)C(Cl)=N2)cc1`, the TGI in assay [1], in [2], in [3], in assay [4], in assay [5] and in assay [6] was over 100 µM each time. For the same compound, the TGI in assay [7], in assay [8], in [9] and in assay [10] was over 100 µM each time.
Regarding `CC(C)(CN1CCCCC1)C(/C=C/c1ccccc1)=N\NC(=O)N/N=C(/C=C/c1ccccc1)C(C)(C)CN1CCCCC1`, the TGI in assay [1] turned out to be 6.82 µM; in assay [2], 20.7 µM; in [3], 6.12 µM; in [4] it was 5.61 µM; in assay [5], 3.09 µM; in assay [6] it was 11.9 µM. Further, the TGI in assay [7] came out at 5.27 µM; in assay [8], 2.86 µM; in assay [9], 3.01 µM; in [10], 3.76 µM.
Consider `C=C(CCOC)CCC1CCCCC(=C)[C@H]1O` (stereo partly specified), for which the TGI in assay [1], in assay [2], in [3], in [4], in [5] and in assay [6] was over 100 µM each time. Further, the TGI in assay [7], in [8], in assay [9] and in assay [10] was over 100 µM throughout.
With `N#Cc1c(N2CCN(c3ccc([N+](=O)[O-])cc3)CC2)[n+](=O)c2ccc(-c3ccc([N+](=O)[O-])cc3)cc2n1[O-]`, the TGI in assay [1] is over 77.2 µM; in assay [2], over 100 µM; in assay [3] it was over 100 µM; in [4], over 100 µM; in assay [5], over 100 µM; in assay [6] it was over 100 µM. Besides, the TGI in assay [7] was over 100 µM; in [8], over 100 µM; in assay [9], over 100 µM; in assay [10] it was over 83.9 µM.
With `COc1cc(S(=O)(=O)Nc2ccc(-c3csc(/N=C\c4ccccc4)n3)cc2)ccc1Cl`, the TGI in assay [1], in assay [2], in [3], in assay [4], in assay [5] and in [6] was over 100 µM each time. Further, the TGI in [7], in assay [8], in assay [9] and in assay [10] was over 100 µM throughout.
For the compound `O=P(O)(O)C=C=C1CCCCC1`, the TGI in assay [1], in assay [2], in assay [3], in assay [4], in [5] and in [6] was over 100 µM in each case. The TGI in [7], in assay [8], in assay [9] and in [10] was over 100 µM each time.
Take `Nn1c(Sc2nc3ccccc3c(=O)n2N)nc2ccccc2c1=O`: the TGI was 40.3 µM in [1]; 38.9 µM in [2]; 39 µM in assay [3]; 20.3 µM in assay [4]; 42.1 µM in assay [5]; 26.4 µM in assay [6]. In addition, the TGI in [7] was 5.5 µM; in [8], over 49.5 µM; in assay [9], 15.5 µM; in [10], 29.3 µM.
With `COC(=O)[C@@]1(C)CCC[C@]2(C(=O)O)C3Cc4occc4[C@H](C)[C@@H]3CCC21` (stereo partly specified), the TGI in [1], in assay [2], in assay [3], in assay [5], in assay [6] and in assay [7] was over 100 µM each time. Moreover, the figures for the TGI in [8], in assay [9] and in [10] were over 100 µM, over 100 µM and 81 µM, respectively.
Regarding `O=c1oc2cccnc2n1CCCCN1CCN(c2ccccc2)CC1`, the TGI in assay [1], in assay [2], in assay [3], in assay [4], in assay [5] and in [6] was over 100 µM each time. For the same compound, the TGI in assay [8], in assay [9] and in assay [10] was over 100 µM throughout.
In the case of `CCn1c(=O)c2c3ccc(OC(C)=O)cc3[nH]c2c2ccc(OC(C)=O)cc21`, the TGI is over 100 µM in assay [1]; over 100 µM in assay [3]; over 100 µM in assay [4]; over 100 µM in assay [5]; 89.6 µM in assay [6]; over 100 µM in assay [7]. The TGI in assay [8], in [9] and in assay [10] was over 100 µM in each case.
As for `Cc1nc(Nc2nc3ccccc3[nH]2)nc(Cl)c1CCCl`, the TGI in [2], in assay [3], in assay [4], in [6], in [7] and in assay [8] was over 100 µM in each case. Further, the TGI is over 100 µM in assay [9] and 90.3 µM in assay [10].
As to `COc1ccccc1NC(=S)N/N=C/c1ccccn1`, the TGI in assay [2] was 5.08 µM; in [3], 34.7 µM; in assay [4] it was 16.8 µM; in assay [5] it was over 31.6 µM; in [6] it was 8.9 µM; in assay [7], over 35.9 µM. In addition, the figures for the TGI in assay [8], in [9] and in assay [10] were over 46.4 µM, over 46.4 µM and 29 µM, respectively.
Take `O=C1c2ccccc2C(=O)c2nn(N=P(CP(=Nn3nc4c(n3)C(=O)c3ccccc3C4=O)(c3ccccc3)c3ccccc3)(c3ccccc3)c3ccccc3)nc21`: the TGI in [1], in assay [2], in assay [3], in assay [4], in [5] and in assay [6] was over 100 µM throughout. Further, the TGI in assay [8], in [9] and in assay [10] was over 100 µM each time.
As for `CC1CN=C(c2ccc(CN3CCC(C4CCN(Cc5ccc(C6=NCC(C)N6)cc5)CC4)CC3)cc2)N1` (stereo unspecified), the TGI in assay [1] is 44.5 µM; in [2], 47.2 µM; in assay [3], 46 µM; in assay [4] it was over 100 µM; in [5], 43.2 µM; in assay [6], 75.9 µM. Besides, the figures for the TGI in [8], in assay [9] and in assay [10] were 51.6 µM, 47.3 µM and over 100 µM, respectively.

These data come from PubChem BioAssay (NCI).
